Data taken from the supplement of paper PMC10307832.

Experiments:
Assay in all cases: relative viability (nuclei count vs DMSO), 5 days (fraction); higher = more cells survive
NCI-H650 = system: NCI-H650
In short: (§1)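 Dosing by pin tool came one day after lung cancer cell lines were seeded in 1536-well plates, using either one drug or a fixed anchor-drug dose plus five library-drug doses (not always all listed) in √10 steps. After 5 days, nuclei were counted on 4× images. Relative viability is treated-well nuclei count divided by vehicle-well nuclei count, and values are medians of duplicate plates.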

LOU-NH91 = system: LOU-NH91
In short: as §1

NCI-H3122 = system: NCI-H3122
In short: as §1

NCI-H596 = system: NCI-H596
In short: as §1

NCI-H1993 = system: NCI-H1993
In short: as §1

NCI-H441 = system: NCI-H441
In short: as §1

HARA = system: HARA
In short: as §1

EMC-BAC-2 = system: EMC-BAC-2
In short: as §1

NCI-H2009 = system: NCI-H2009
In short: as §1

201T = system: 201T
In short: as §1

NCI-H1666 = system: NCI-H1666
In short: as §1

NCI-H2347 = system: NCI-H2347
In short: as §1

LCLC-103H = system: LCLC-103H
In short: as §1

NCI-H23 = system: NCI-H23
In short: as §1

NCI-H2087 = system: NCI-H2087
In short: as §1

NCI-H2126 = system: NCI-H2126
In short: as §1

NCI-H727 = system: NCI-H727
In short: as §1

NCI-H2023 = system: NCI-H2023
In short: as §1

HCC-44 = system: HCC-44
In short: as §1

NCI-H647 = system: NCI-H647
In short: as §1

NCI-H838 = system: NCI-H838
In short: as §1

NCI-H1395 = system: NCI-H1395
In short: as §1

BEN = system: BEN
In short: as §1

O=C(O)c1ccc(-c2c[nH]c3ncc(-c4ccccc4)cc23)cc1C1CCCC1 + O=C(c1cc(Cc2n[nH]c(=O)c3ccccc23)ccc1F)N1CCN(C(=O)C2CC2)CC1 [Olaparib] (partner 8 µM)
relative viability (NCI-H650; first compound 0.04 µM): 0.372 | relative viability (NCI-H650; first compound 0.1265 µM): 0.432 | relative viability (NCI-H650; first compound 0.4 µM): 0.324 | relative viability (NCI-H650; first compound 1.265 µM): 0.256 | relative viability (LOU-NH91; first compound 0.04 µM): 0.893 | relative viability (LOU-NH91; first compound 0.1265 µM): 0.979 | relative viability (LOU-NH91; first compound 0.4 µM): 0.908 | relative viability (LOU-NH91; first compound 1.265 µM): 0.754 | relative viability (NCI-H3122; first compound 0.04 µM): 0.654 | relative viability (NCI-H3122; first compound 0.1265 µM): 0.666 | relative viability (NCI-H3122; first compound 0.4 µM): 0.602 | relative viability (NCI-H3122; first compound 1.265 µM): 0.617 | relative viability (NCI-H596; first compound 0.04 µM): 0.711 | relative viability (NCI-H596; first compound 0.1265 µM): 0.745 | relative viability (NCI-H596; first compound 0.4 µM): 0.749 | relative viability (NCI-H596; first compound 1.265 µM): 0.607 | relative viability (NCI-H1993; first compound 0.04 µM): 0.902 | relative viability (NCI-H1993; first compound 0.1265 µM): 1.19 | relative viability (NCI-H1993; first compound 0.4 µM): 1.04 | relative viability (NCI-H1993; first compound 1.265 µM): 0.974 | relative viability (NCI-H441; first compound 0.04 µM): 0.606 | relative viability (NCI-H441; first compound 0.1265 µM): 0.563 | relative viability (NCI-H441; first compound 0.4 µM): 0.467 | relative viability (NCI-H441; first compound 1.265 µM): 0.265 | relative viability (HARA; first compound 0.04 µM): 0.878 | relative viability (HARA; first compound 0.1265 µM): 0.678 | relative viability (HARA; first compound 0.4 µM): 0.886 | relative viability (HARA; first compound 1.265 µM): 0.329 | relative viability (EMC-BAC-2; first compound 0.04 µM): 0.453 | relative viability (EMC-BAC-2; first compound 0.1265 µM): 0.506 | relative viability (EMC-BAC-2; first compound 0.4 µM): 0.429 | relative viability (EMC-BAC-2; first compound 1.265 µM): 0.368 | relative viability (NCI-H2009; first compound 0.04 µM): 0.679 | relative viability (NCI-H2009; first compound 0.1265 µM): 0.708 | relative viability (NCI-H2009; first compound 0.4 µM): 0.653 | relative viability (NCI-H2009; first compound 1.265 µM): 0.568 | relative viability (201T; first compound 0.04 µM): 0.837 | relative viability (201T; first compound 0.1265 µM): 0.866 | relative viability (201T; first compound 0.4 µM): 0.827 | relative viability (201T; first compound 1.265 µM): 0.775 | relative viability (NCI-H1666; first compound 0.04 µM): 0.781 | relative viability (NCI-H1666; first compound 0.1265 µM): 0.742 | relative viability (NCI-H1666; first compound 0.4 µM): 0.741 | relative viability (NCI-H1666; first compound 1.265 µM): 0.678 | relative viability (NCI-H2347; first compound 0.04 µM): 0.593 | relative viability (NCI-H2347; first compound 0.1265 µM): 0.608 | relative viability (NCI-H2347; first compound 0.4 µM): 0.54 | relative viability (NCI-H2347; first compound 1.265 µM): 0.51 | relative viability (LCLC-103H; first compound 0.04 µM): 0.728 | relative viability (LCLC-103H; first compound 0.1265 µM): 0.771 | relative viability (LCLC-103H; first compound 0.4 µM): 0.758 | relative viability (LCLC-103H; first compound 1.265 µM): 0.729 | relative viability (NCI-H23; first compound 0.04 µM): 0.34 | relative viability (NCI-H23; first compound 0.1265 µM): 0.33 | relative viability (NCI-H23; first compound 0.4 µM): 0.289 | relative viability (NCI-H23; first compound 1.265 µM): 0.271 | relative viability (NCI-H2087; first compound 0.04 µM): 0.686 | relative viability (NCI-H2087; first compound 0.1265 µM): 0.597 | relative viability (NCI-H2087; first compound 0.4 µM): 0.524 | relative viability (NCI-H2087; first compound 1.265 µM): 0.342 | relative viability (NCI-H2126; first compound 0.04 µM): 0.884 | relative viability (NCI-H2126; first compound 0.1265 µM): 0.861 | relative viability (NCI-H2126; first compound 0.4 µM): 0.853 | relative viability (NCI-H2126; first compound 1.265 µM): 0.64 | relative viability (NCI-H727; first compound 0.04 µM): 0.629 | relative viability (NCI-H727; first compound 0.1265 µM): 0.713 | relative viability (NCI-H727; first compound 0.4 µM): 0.633 | relative viability (NCI-H727; first compound 1.265 µM): 0.563 | relative viability (NCI-H2023; first compound 0.04 µM): 0.475 | relative viability (NCI-H2023; first compound 0.1265 µM): 0.485 | relative viability (NCI-H2023; first compound 0.4 µM): 0.408 | relative viability (NCI-H2023; first compound 1.265 µM): 0.238 | relative viability (HCC-44; first compound 0.04 µM): 0.998 | relative viability (HCC-44; first compound 0.1265 µM): 0.975 | relative viability (HCC-44; first compound 0.4 µM): 0.975 | relative viability (HCC-44; first compound 1.265 µM): 0.95 | relative viability (NCI-H647; first compound 0.04 µM): 0.5 | relative viability (NCI-H647; first compound 0.1265 µM): 0.619 | relative viability (NCI-H647; first compound 0.4 µM): 0.494 | relative viability (NCI-H647; first compound 1.265 µM): 0.322 | relative viability (NCI-H838; first compound 0.04 µM): 0.76 | relative viability (NCI-H838; first compound 0.1265 µM): 0.858 | relative viability (NCI-H838; first compound 0.4 µM): 0.732 | relative viability (NCI-H838; first compound 1.265 µM): 0.468 | relative viability (NCI-H1395; first compound 0.04 µM): 0.473 | relative viability (NCI-H1395; first compound 0.1265 µM): 0.495 | relative viability (NCI-H1395; first compound 0.4 µM): 0.495 | relative viability (NCI-H1395; first compound 1.265 µM): 0.444 | relative viability (BEN; first compound 0.04 µM): 1.05 | relative viability (BEN; first compound 0.1265 µM): 1.06 | relative viability (BEN; first compound 0.4 µM): 1.09 | relative viability (BEN; first compound 1.265 µM): 0.944
